Data: the supplement of paper PMC11451515

Test system: NOMO1
Experiment: cell viability relative to DMSO control; higher = less cytotoxic
Conditions: 48 h
Method in brief: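 Viability, reported as a per-plate percentage of DMSO wells with cell-free wells as background, came from CellTiter-Glo One luminescence. Reading took place after 48 h at 37°C. Before that, NOMO1 or SEM (500 cells/well) or P12-Ichikawa (1000 cells/well) leukemia cells, adapted for at least four passages in each medium, were seeded in 1536-well plates (5 μl) and pin-dosed with library compounds in DMSO, 47 μM to 0.79 nM over 11 threefold points.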

[1] = HPLM + 10% dialyzed FBS, 0.000781 µM
[2] = HPLM + 10% dialyzed FBS, 0.00234 µM
[3] = HPLM + 10% dialyzed FBS, 0.00702 µM
[4] = HPLM + 10% dialyzed FBS, 0.0211 µM
[5] = HPLM + 10% dialyzed FBS, 0.0632 µM
[6] = HPLM + 10% dialyzed FBS, 0.19 µM
[7] = HPLM + 10% dialyzed FBS, 0.569 µM
[8] = HPLM + 10% dialyzed FBS, 1.71 µM
[9] = HPLM + 10% dialyzed FBS, 5.12 µM
[10] = HPLM + 10% dialyzed FBS, 15.4 µM
[11] = HPLM + 10% dialyzed FBS, 46.1 µM
[12] = RPMI 5 mM glucose + 10% FBS, 0.000781 µM
[13] = RPMI 5 mM glucose + 10% FBS, 0.00234 µM
[14] = RPMI 5 mM glucose + 10% FBS, 0.00702 µM
[15] = RPMI 5 mM glucose + 10% FBS, 0.0211 µM
[16] = RPMI 5 mM glucose + 10% FBS, 0.0632 µM
[17] = RPMI 5 mM glucose + 10% FBS, 0.19 µM
[18] = RPMI 5 mM glucose + 10% FBS, 0.569 µM
[19] = RPMI 5 mM glucose + 10% FBS, 1.71 µM
[20] = RPMI 5 mM glucose + 10% FBS, 5.12 µM
[21] = RPMI 5 mM glucose + 10% FBS, 15.4 µM
[22] = RPMI 5 mM glucose + 10% FBS, 46.1 µM
[23] = RPMI 5 mM glucose + 10% dialyzed FBS, 0.000781 µM
[24] = RPMI 5 mM glucose + 10% dialyzed FBS, 0.00234 µM
[25] = RPMI 5 mM glucose + 10% dialyzed FBS, 0.00702 µM
[26] = RPMI 5 mM glucose + 10% dialyzed FBS, 0.0211 µM
[27] = RPMI 5 mM glucose + 10% dialyzed FBS, 0.0632 µM
[28] = RPMI 5 mM glucose + 10% dialyzed FBS, 0.19 µM
[29] = RPMI 5 mM glucose + 10% dialyzed FBS, 0.569 µM
[30] = RPMI 5 mM glucose + 10% dialyzed FBS, 1.71 µM
[31] = RPMI 5 mM glucose + 10% dialyzed FBS, 5.12 µM
[32] = RPMI 5 mM glucose + 10% dialyzed FBS, 15.4 µM
[33] = RPMI 5 mM glucose + 10% dialyzed FBS, 46.1 µM

## C[C@@H](NCc1cc2ccccc2[nH]1)c1cccc2ccccc12
[1]
  cell viability: 88.3%
[2]
  cell viability: 82.2%
[3]
  cell viability: 91.6%
[4]
  cell viability: 90.6%
[5]
  cell viability: 94.6%
[6]
  cell viability: 95.5%
[7]
  cell viability: 91.9%
[8]
  cell viability: 95.2%
[9]
  cell viability: 97.1%
[10]
  cell viability: 92.3%
[11]
  cell viability: 100%
[12]
  cell viability: 84.3%
[13]
  cell viability: 87.5%
[14]
  cell viability: 80.1%
[15]
  cell viability: 86.1%
[16]
  cell viability: 90.5%
[17]
  cell viability: 88.1%
[18]
  cell viability: 97.4%
[19]
  cell viability: 89.8%
[20]
  cell viability: 95.5%
[21]
  cell viability: 94.5%
[22]
  cell viability: 91.8%
[23]
  cell viability: 93.6%
[24]
  cell viability: 89.8%
[25]
  cell viability: 89%
[26]
  cell viability: 87.8%
[27]
  cell viability: 84.2%
[28]
  cell viability: 102%
[29]
  cell viability: 102%
[30]
  cell viability: 93.7%
[31]
  cell viability: 97%
[32]
  cell viability: 92.3%
[33]
  cell viability: 102%

## C=C[C@H]1CN2CCC1C[C@@H]2[C@@H](O)c1ccnc2ccccc12 (stereo partly drawn)
[1]
  cell viability: 97%
[2]
  cell viability: 109%
[3]
  cell viability: 105%
[4]
  cell viability: 93.7%
[5]
  cell viability: 99.7%
[6]
  cell viability: 107%
[7]
  cell viability: 92.7%
[8]
  cell viability: 97.1%
[9]
  cell viability: 86%
[10]
  cell viability: 93.1%
[11]
  cell viability: 74.9%
[12]
  cell viability: 90.3%
[13]
  cell viability: 90.6%
[14]
  cell viability: 94.1%
[15]
  cell viability: 85.4%
[16]
  cell viability: 91.4%
[17]
  cell viability: 91.1%
[18]
  cell viability: 84.9%
[19]
  cell viability: 86.1%
[20]
  cell viability: 89.9%
[21]
  cell viability: 83.8%
[22]
  cell viability: 85.2%
[23]
  cell viability: 101%
[24]
  cell viability: 114%
[25]
  cell viability: 96.7%
[26]
  cell viability: 99.3%
[27]
  cell viability: 92.6%
[28]
  cell viability: 96%
[29]
  cell viability: 85.2%
[30]
  cell viability: 99.1%
[31]
  cell viability: 84.1%
[32]
  cell viability: 85.4%
[33]
  cell viability: 76.8%

## OCCNC1CCCc2c1[nH]c1ccc(-c3ccccc3)cc21 (stereo not drawn)
[1]
  cell viability: 81.8%
[2]
  cell viability: 93.5%
[3]
  cell viability: 106%
[4]
  cell viability: 105%
[5]
  cell viability: 117%
[6]
  cell viability: 112%
[7]
  cell viability: 109%
[8]
  cell viability: 105%
[9]
  cell viability: 104%
[10]
  cell viability: 87.1%
[11]
  cell viability: 11.2%
[12]
  cell viability: 93.4%
[13]
  cell viability: 103%
[14]
  cell viability: 109%
[15]
  cell viability: 105%
[16]
  cell viability: 111%
[17]
  cell viability: 96.5%
[18]
  cell viability: 109%
[19]
  cell viability: 110%
[20]
  cell viability: 100%
[21]
  cell viability: 98.6%
[22]
  cell viability: 14.7%
[23]
  cell viability: 83.7%
[24]
  cell viability: 97.4%
[25]
  cell viability: 106%
[26]
  cell viability: 105%
[27]
  cell viability: 111%
[28]
  cell viability: 99.4%
[29]
  cell viability: 104%
[30]
  cell viability: 96.3%
[31]
  cell viability: 105%
[32]
  cell viability: 88.6%
[33]
  cell viability: 22.7%

## OC(CCN1CCCCC1)(C2CC\3CC2\C=C3)C4=CC=CC=C4 (stereo not drawn)
[1]
  cell viability: 125%
[2]
  cell viability: 119%
[3]
  cell viability: 125%
[4]
  cell viability: 123%
[5]
  cell viability: 140%
[6]
  cell viability: 133%
[7]
  cell viability: 138%
[8]
  cell viability: 144%
[9]
  cell viability: 136%
[10]
  cell viability: 117%
[11]
  cell viability: 94.2%

## COc1ccc2c(OCc3nnc4ccc(-c5ccccc5)nn34)ccnc2c1
[1]
  cell viability: 94.4%
[2]
  cell viability: 98.9%
[3]
  cell viability: 86.7%
[4]
  cell viability: 92.8%
[5]
  cell viability: 90.2%
[6]
  cell viability: 93.9%
[7]
  cell viability: 104%
[8]
  cell viability: 83.9%
[9]
  cell viability: 94%
[10]
  cell viability: 104%
[11]
  cell viability: 65.2%
[12]
  cell viability: 113%
[13]
  cell viability: 123%
[14]
  cell viability: 116%
[15]
  cell viability: 116%
[16]
  cell viability: 117%
[17]
  cell viability: 114%
[18]
  cell viability: 117%
[19]
  cell viability: 116%
[20]
  cell viability: 112%
[21]
  cell viability: 113%
[22]
  cell viability: 116%
[23]
  cell viability: 113%
[24]
  cell viability: 123%
[25]
  cell viability: 133%
[26]
  cell viability: 119%
[27]
  cell viability: 129%
[28]
  cell viability: 102%
[29]
  cell viability: 131%
[30]
  cell viability: 116%
[31]
  cell viability: 115%
[32]
  cell viability: 119%
[33]
  cell viability: 122%

## CN1CCN(Cc2ccc(NC(=O)Nc3ccc(Oc4cc(NC(=O)C5CC5)ncn4)cc3)cc2C(F)(F)F)CC1
[1]
  cell viability: 104%
[2]
  cell viability: 104%
[3]
  cell viability: 120%
[4]
  cell viability: 129%
[5]
  cell viability: 143%
[6]
  cell viability: 141%
[7]
  cell viability: 12%
[8]
  cell viability: 4.6%
[9]
  cell viability: 3.07%
[10]
  cell viability: 2.49%
[11]
  cell viability: 0.956%
[12]
  cell viability: 110%
[13]
  cell viability: 125%
[14]
  cell viability: 118%
[15]
  cell viability: 125%
[16]
  cell viability: 138%
[17]
  cell viability: 149%
[18]
  cell viability: 22%
[19]
  cell viability: 8.28%
[20]
  cell viability: 6.02%
[21]
  cell viability: 4.38%
[22]
  cell viability: 2.32%
[23]
  cell viability: 106%
[24]
  cell viability: 122%
[25]
  cell viability: 114%
[26]
  cell viability: 125%
[27]
  cell viability: 146%
[28]
  cell viability: 161%
[29]
  cell viability: 18%
[30]
  cell viability: 6.64%
[31]
  cell viability: 5.97%
[32]
  cell viability: 3.84%
[33]
  cell viability: 2.43%

## C[C@]12CC[C@@H]3c4ccc(O)cc4CC[C@H]3[C@@H]1CC[C@@H]2O
[1]
  cell viability: 124%
[2]
  cell viability: 124%
[3]
  cell viability: 124%
[4]
  cell viability: 112%
[5]
  cell viability: 117%
[6]
  cell viability: 115%
[7]
  cell viability: 117%
[8]
  cell viability: 116%
[9]
  cell viability: 112%
[10]
  cell viability: 56.3%
[11]
  cell viability: 46.9%
[23]
  cell viability: 107%
[24]
  cell viability: 116%
[25]
  cell viability: 105%
[26]
  cell viability: 133%
[27]
  cell viability: 128%
[28]
  cell viability: 116%
[29]
  cell viability: 104%
[30]
  cell viability: 103%
[31]
  cell viability: 104%
[32]
  cell viability: 91.8%
[33]
  cell viability: 35.6%

## O=[S+]([O-])(CCSSCC[S+](=O)([O-])[O][Na])[O][Na]
[1]
  cell viability: 110%
[2]
  cell viability: 104%
[3]
  cell viability: 132%
[4]
  cell viability: 124%
[5]
  cell viability: 120%
[6]
  cell viability: 112%
[7]
  cell viability: 133%
[8]
  cell viability: 125%
[9]
  cell viability: 135%
[10]
  cell viability: 129%
[11]
  cell viability: 141%
[12]
  cell viability: 107%
[13]
  cell viability: 115%
[14]
  cell viability: 125%
[15]
  cell viability: 119%
[16]
  cell viability: 127%
[17]
  cell viability: 123%
[18]
  cell viability: 125%
[19]
  cell viability: 129%
[20]
  cell viability: 147%
[21]
  cell viability: 130%
[22]
  cell viability: 142%
[23]
  cell viability: 107%
[24]
  cell viability: 112%
[25]
  cell viability: 126%
[26]
  cell viability: 130%
[27]
  cell viability: 121%
[28]
  cell viability: 122%
[29]
  cell viability: 125%
[30]
  cell viability: 139%
[31]
  cell viability: 134%
[32]
  cell viability: 144%
[33]
  cell viability: 127%

## CCCOc1ccc2[nH]c(NC(=O)OC)nc2c1
[1]
  cell viability: 116%
[2]
  cell viability: 116%
[3]
  cell viability: 104%
[4]
  cell viability: 102%
[5]
  cell viability: 76.5%
[6]
  cell viability: 36.9%
[7]
  cell viability: 31.7%
[8]
  cell viability: 32%
[9]
  cell viability: 50.3%
[10]
  cell viability: 36.6%
[11]
  cell viability: 36.6%
[12]
  cell viability: 122%
[13]
  cell viability: 116%
[14]
  cell viability: 120%
[15]
  cell viability: 121%
[16]
  cell viability: 98.3%
[17]
  cell viability: 28.6%
[18]
  cell viability: 21.1%
[19]
  cell viability: 19.4%
[20]
  cell viability: 26.7%
[21]
  cell viability: 22.6%
[22]
  cell viability: 25.2%
